1 compound from US10093642B2, “Multitarget hedgehog pathway inhibitors and uses thereof” (UNIVERSITA' DEGLI STUDI DI SIENA, priority 2013, dated 2018) can be followed below.

For one assay, the system named is Jurkat T leukemia cells. Kind of assay: Effect on Hh-independent Jurkat cells. Type of assay: cell-based.
A further assay concerns ASZ001 BCC allografts. Kind of assay: ASZ001 BCC allograft in NOD/SCID mice. The assay is classed as in vivo. To be noted: 100 μmol/Kg, 18 days. An excerpt: FIG. 18. Glabrescione B inhibits Gli1-dependent BCC tumor growth in vivo. (ASZ001 BCC allografts). (A) Change of tumor volume during Glabrescione B (GlaB) or vehicle (CTR) treatment period (18 days). […] (C) qRT-PCR of Gli1 and Ptch1 mRNA. Shown is the mean±SD of tumor (n=6) for each treatment. *P<0.05 vs CTR.
Therefore, to verify the Glabrescione B efficacy to inhibit Hh-dependent tumor cell growth in vivo, we turned to an allograft model of MB cells. Spontaneous Medulloblastomas from Ptch1^+/− mice were isolated, minced, pipetted to obtain a single-cell suspension and grafted s.c. at the posterior flank of female BALB/c nude mice (nu/nu) (Charles River Laboratories, Lecco, Italy). Tumors were grown until a median size of ˜100 mm^3. Animals were randomly divided into two groups (n=6) and treated with solvent only (2-hydroxypropyl-β-cyclodextrin:ethanol, 3:1) or Glabrescione B in solvent (75 μmol/Kg) for 18 days (2-hydroxypropyl-β-cyclodextrin was purchased from Sigma Aldrich, St. Louis, Mo., USA). 2×10^6 ASZ001 BCC cells were resuspended in an equal volume of 154CF medium and Matrigel (BD Biosciences, Heidelberg, Germany) and injected s.c. at the posterior flank of female NOD/SCID mice (Charles River Laboratories, Lecco, Italy), as previously described (Eberl et al, 2012). […] Tumor volumes change was calculated by the formula length×width×0.5×(length+width) (Lauth et al, 2007). […]

In assay [1] the test system is Cancer stem cells (CSCs) isolated from murine Ptch+/− MB. The assay can be described thus: Neurosphere forming assay (self-renewal of MB CSCs). Type of assay: cell-based. To be noted: seven days of treatment; KAAD 1 μM as comparator. Here is the method: FIG. 14. […] After seven days of treatment the number of secondary neurospheres derived from a known number of single cells was counted. The self-renewal CSCs capability is expressed as percentage of neurospheres forming cells.
Hh activity preferentially associates to stemness features. For this reason, the Hh pathway antagonist Glabrescione B has also been investigated for its ability to modulate the behavior of MB cancer stem cells (CSCs).
Another experiment was carried out to determine the ability of Glabrescione B to suppress MB CSCs self-renewal. To this aim neurospheres derived from murine Ptch^+/− MB were treated with Glabrescione B at different concentrations and the percentage of neurospheres-forming cells was measured. For the neurosphere forming assay, cells were plated at clonal density (1-2 cells/mm2) into 96-well plates and cultured in selective medium as described above.
The results shown in FIG. 14 indicate that Glabrescione B has an inhibitory effect on self-renewal of cancer stem cells.

Another assay concerns the target GST (Schistosoma japonicum, UniProt P08515). Kind of assay: NMR relaxation speed of Glabrescione B protons in presence of GST alone. To be noted: 0.412 mM. The assay is classed as binding.
Assay [2] has as its system Hh pathway (Gli-RE reporter, activated by SMO agonist SAG). Kind of assay: Gli-luciferase reporter assay in SAG-treated NIH 3T3 Shh-light II cells. Type of assay: cell-based. Here is the method:
FIG. 4. Effect of active natural compounds identified by the pharmacophore screening in a luciferase assay, where the gene reporter was Gli1 and the pathway was activated by the SAG molecule, a potent SMO agonist. Natural compounds were tested at three different concentrations (1, 10 and 20 μM) and their activity was compared to that of cyclopamine, the natural compound reference inhibitor of the Hedgehog pathway, which was tested at the same doses (1, 10 and 20 μM). On both graphs the activity of cyclopamine is reported as reference standard. (A) cyclopamine, 2,4,5,3′,4′-penta-Ome chalcone and Auriculasin; (B) cyclopamine, Martinoside, Jaceidin, 2,4,5,3′,4′-penta-Ome chalcone, 3,4-di-MDO-2′,4′,5′-tri-Ome dihydrochalcone.
FIG. 6. Dose-response curve of Glabrescione B in SAG (Smoothened Agonist, 200 nM) treated NIH 3T3 Shh-light II (Shh-LII) cells. Treatment time was 48 h and normalization was against Renilla luciferase. Shown is the fold increase of Hh reporter activity compared with cells not treated with SAG.
FIG. 19. Effect of derivatives NT8, NT9, NT10, NT11, NT12, NT13, NT14 and NT15 on the Hedgehog pathway, measured at 5 μM dose in a luciferase assay where the gene reporter was Gli1 and the pathway was activated by the SAG molecule, a potent SMO agonist. […]
To investigate the inhibitory properties of Glabrescione B on Hh signaling, the inventors examined its effects in NIH 3T3 Shh-light II (Shh-LII) cells stably incorporating an Hh-responsive (Gli-RE) reporter, in which induction of the pathway occurs following treatment with the SMO agonist SAG. […] The IC50 in this assay was 0.8 μM.
The ability of Glabrescione B to suppress Hh signaling was assessed in a cellular context of Hh pathway induction. To this end, the antagonist properties of Glabrescione B were determined in Shh Light II (ATCC, cat. # CRL-2795), a murine fibroblast NIH 3T3 cell line. These cells, stably incorporating the Gli-luc reporter and the pRL-TK Renilla reniformis (as described in Taipale, Chen et al. 2000) are a standard tool used to assay Hh pathway activity. The cells that reached the confluence were treated for 48 h with the SMO agonist SAG (200 nM, Alexis, cat. #ALX-270-426-M001) in absence or in presence of Glabrescione B at the amount indicated in FIG. 6. […] Control cells were treated with only DMSO (0.5%, SERVA, cat. #39757.02) Determination of luciferase activities was carried out using the Dual-Luciferase assay according to manufacturer's instructions (Dual-Luciferase® Reporter assay system; Promega, cat. # E1980). All presented data are firefly luciferase activity reported to the Renilla control activity. […] IC50 of 0.8 μM, represents the concentration of Glabrescione B necessary to have fifty percent of inhibition.
Evaluation of the Hh inhibitory activity of these molecules at 5 μM was preliminarily conducted in vitro on Shh Light II cells (see example 2).
For orientation: A reporter such as luciferase makes a cellular process visible.

Molecules are shown by their SMILES. “Also recorded” adds a separate entry of the source.

Sequence of GST (P08515 whole entry): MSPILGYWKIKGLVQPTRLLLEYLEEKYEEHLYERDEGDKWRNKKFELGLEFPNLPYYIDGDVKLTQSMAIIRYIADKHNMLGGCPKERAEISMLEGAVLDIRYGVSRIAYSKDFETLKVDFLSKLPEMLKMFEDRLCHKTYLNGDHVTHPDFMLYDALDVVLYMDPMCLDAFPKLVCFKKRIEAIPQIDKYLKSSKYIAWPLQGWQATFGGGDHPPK

By IC50 is commonly meant the point on the concentration scale where inhibition reaches its midpoint. In general, inhibition refers to the percentage by which the read-out fell short of the control. Read a high inhibition as strong suppression. As for `COc1cc(OC)c2c(=O)c(-c3ccc(OCC=C(C)C)c(OCC=C(C)C)c3)coc2c1` [Glabrescione B, 3-(3′,4′-bis(3-methylbut-2-enyloxy)phenyl)-5,7-dimethoxy-4H-chromen-4-one], the “effect on Jurkat cells” value with Jurkat T leukemia cells was “no effect”. In the assay with ASZ001 BCC allografts, the “Gli1 mRNA levels in tumors” value was “significant reduction”. For the same compound, the tumor growth entry in the assay with ASZ001 BCC allografts is “significant reduction of tumor growth”. The “MB CSCs self-renewal (percentage of neurospheres-forming cells)” value in assay [1] is given as “suppressive effect on MB CSCs self-renewal”. The “Normalized relaxation speed ΔR/Rf, GlaB:GST 1:150” value on GST (proton 1) is listed as 0.024; on GST (proton 2′), 0.058; at GST (proton 3), 0.100; at GST (proton 4′), 0; on GST (proton 8), 0; at GST (proton 12) it was 0.034. Besides, the “Normalized relaxation speed ΔR/Rf, GlaB:GST 1:150” value on GST (proton 15) amounted to 0.138; at GST (proton 19), 0. For the same compound, the “effect on Hh pathway in luciferase assay” value in assay [2] (Gli1 gene reporter, pathway activated by SAG, cyclopamine as reference) was “inhibit the Hh pathway; also recorded: most potent lead”. Moreover, the half-inhibitory concentration (IC50) in assay [2] (Mus musculus, SAG 200 nM, 48 h, normalized to Renilla, read-out: IC50 of luciferase reporter activity (Hh signaling)) stood at 800 nM. Moreover, in assay [2] (Mus musculus, at 5 μM, highly active class), the inhibition at 5 µM was > 50%.
